The target of experiment [1] is T1, Recombinant STAT6 protein (STAT6 (W123-T658)) (Homo sapiens, UniProt P42226).
T1 construct: Recombinant STAT6 protein (STAT6 (W123-T658))
T1 sequence (P42226 123-658): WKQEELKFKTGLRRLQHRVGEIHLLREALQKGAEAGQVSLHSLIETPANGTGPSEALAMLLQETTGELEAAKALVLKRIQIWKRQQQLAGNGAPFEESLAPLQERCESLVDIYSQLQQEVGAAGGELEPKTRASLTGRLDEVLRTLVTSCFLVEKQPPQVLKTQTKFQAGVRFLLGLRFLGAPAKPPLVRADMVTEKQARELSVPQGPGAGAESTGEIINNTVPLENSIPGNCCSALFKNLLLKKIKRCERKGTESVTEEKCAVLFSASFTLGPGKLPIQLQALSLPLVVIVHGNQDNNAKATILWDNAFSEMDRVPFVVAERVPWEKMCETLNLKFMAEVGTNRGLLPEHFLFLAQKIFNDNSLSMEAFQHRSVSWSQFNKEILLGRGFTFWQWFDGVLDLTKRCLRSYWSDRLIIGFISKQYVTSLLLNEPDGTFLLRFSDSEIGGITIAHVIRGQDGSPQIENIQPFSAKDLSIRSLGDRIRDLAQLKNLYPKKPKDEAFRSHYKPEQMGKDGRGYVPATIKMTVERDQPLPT
Kind of experiment: STAT6 Fluorescence Polarization (FP) Assay. The experiment is classed as binding. The conditions noted are these: probe 5-FAM-Ap[…]-NH2 2 nM, 45-minute incubation. The procedure, abridged:
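Recombinant STAT6 (W123-T658) at 250 nM mixed with 2 nM 5-FAM phosphotyrosine peptide probe in HEPES pH 7.4 buffer with DTT, 1% DMSO final, added to serially diluted compounds. FP (mP) read after 45 min at room temperature; IC50 by nonlinear regression vs log concentration.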

Experiment [2] deals with T2, Recombinant STAT3 protein (STAT3 (G127-I722)) (Homo sapiens, UniProt P40763).
T2 construct: Recombinant STAT3 protein (STAT3 (G127-I722))
Kind of experiment: STAT3 Fluorescence Polarization (FP) Assay. The experiment is classed as binding. The conditions noted are these: probe 5-FAM-GpYLPQTV-NH2 2 nM, 45-minute incubation. The procedure, abridged: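 Displacement of a 2 nM 5-FAM-labelled pY peptide (GpYLPQTV) from 25 nM recombinant STAT3 (G127-I722) was monitored by fluorescence polarization. Incubation lasted 45 min at room temperature in pH 7.4 HEPES buffer containing 1% DMSO.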

Where [3] appears, read: STAT6 (W123-T658) 250 nM, read-out: STAT6 (FP assay IC50 class).
Where [4] appears, read: STAT3 (G127-I722) 25 nM, read-out: STAT3 (FP assay IC50 class).
[5] abbreviates: STAT6 250 nM, read-out: STAT6 (FP assay IC50).
Where [6] appears, read: STAT3 25 nM, read-out: STAT3 (FP assay IC50).

This passage reports IC50 results from patent US20250215029A1 (Recludix Pharma, Inc., priority 2022, published 2025).

Read-outs that look alike come from different tables or passages of the source.

By IC50 is commonly meant the midpoint of a concentration-inhibition curve.

T2 sequence (P40763 127-722): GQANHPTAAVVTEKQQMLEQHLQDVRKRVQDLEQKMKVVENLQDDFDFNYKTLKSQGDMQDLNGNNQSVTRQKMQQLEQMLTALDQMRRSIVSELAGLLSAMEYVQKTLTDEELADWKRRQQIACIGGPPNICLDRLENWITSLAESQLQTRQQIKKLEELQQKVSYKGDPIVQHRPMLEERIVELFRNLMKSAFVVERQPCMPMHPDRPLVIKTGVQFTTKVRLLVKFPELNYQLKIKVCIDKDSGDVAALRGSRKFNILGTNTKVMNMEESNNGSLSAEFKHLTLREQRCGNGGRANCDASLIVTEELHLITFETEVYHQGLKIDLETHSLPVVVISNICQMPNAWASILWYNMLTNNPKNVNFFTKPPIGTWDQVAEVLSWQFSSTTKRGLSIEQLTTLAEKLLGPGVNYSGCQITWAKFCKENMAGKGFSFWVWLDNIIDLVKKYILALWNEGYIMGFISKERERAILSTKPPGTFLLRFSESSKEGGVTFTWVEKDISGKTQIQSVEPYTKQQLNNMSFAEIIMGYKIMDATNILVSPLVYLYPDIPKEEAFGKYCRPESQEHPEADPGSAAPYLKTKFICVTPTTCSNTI

Take `COC[C@@H]1CCN1c1ncncc1C1CN(C(=O)[C@@H]2CC[C@@H]3CCC[C@H](NC(=O)c4cc5cc([C@@H](F)P(=O)(O)O)ccc5s4)C(=O)N32)C1` (single isomer, unassigned) [Compound 669]: the IC50 was 3000 to 30000 nM in experiment [1] (setting [3]) and under 100 nM in experiment [2] (setting [4]).

For the compound `N#C[C@@H]1[C@@H](c2cccnc2)CN(C(=O)[C@@H]2CC[C@@H]3CCC[C@H](NC(=O)c4cc5cc([C@@H](F)P(=O)(O)O)ccc5s4)C(=O)N32)C12CC2` (single isomer, unassigned) [Compound 837], the IC50 in experiment [1] (setting [3]) is at most 300 nM; in experiment [2] (setting [4]), 1000 to 10000 nM.

Regarding `O=C(N[C@H]1CCCC[C@H]2CC[C@@H](C(=O)N3CCN(C(=O)c4cn[nH]c4)CC3)N2C1=O)c1cc2cc(C(F)(F)P(=O)(O)O)ccc2s1` [Compound 118B, ((2-(((3S,6S,10a S)-3-(4-(1H-pyrazole-4-carbonyl)piperazine-1-carbonyl)-5-oxodecahydro-pyrrolo [1,2-a]azocin-6-yl)carbamoyl)benzo[b]thiophen-5-yl)difluoromethyl) phosphonic acid], the half-inhibitory concentration (IC50) is 300 to 3000 nM in experiment [1] (setting [5]) and 100 to 1000 nM in experiment [2] (setting [6]).

With `O=C(N[C@H]1CCC[C@H]2CC[C@@H](C(=O)N3CC(c4cnccc4N4CCC4)C3)N2C1=O)c1cc2cc([C@@H](F)P(=O)(O)O)ccc2s1` (single isomer, unassigned) [Compound 741], the results for the IC50 in experiment [1] (setting [3]) and in experiment [2] (setting [4]) were 300 to 3000 nM and under 100 nM, respectively.

For `N#C[C@H]1CN(C(=O)[C@@H]2CC[C@@H]3CCCC[C@H](NC(=O)c4ccc5ccc(C(F)(F)P(=O)(O)O)cc5c4)C(=O)N32)C[C@@H]1c1ccccc1` (mixture of isomers) [Compound 28, ((7-(((3S,6S,10aS)-3-(rel- trans)-3-cyano-4-phenylpyrrolidine-1-carbonyl)-5-oxodecahydropyrrolo [1,2-a]azocin-6-yl)carbamoyl)naphthalen-2-yl) difluoromethyl) phosphonic acid], the values for the IC50 in experiment [1] (setting [5]) and in experiment [2] (setting [6]) were at most 300 nM and 1000 to 10000 nM, respectively.

On to `O=C(N[C@H]1CC[C@H](O)C[C@H]2CC[C@@H](C(=O)N3CC(c4cccnc4)C3)N2C1=O)c1cc2cc(C(F)(F)P(=O)(O)O)ccc2s1` [Compound 16, (difluoro(2-(((3S,6S,9S,10aR)-9-hydroxy-5-oxo-3-(3-(pyridin-3-yl)azetidine-1-carbonyl)decahydropyrrolo[1,2-a]azocin-6-yl)carbamoyl)benzo[b]thiophen-5-yl)methyl) phosphonic acid], for which the IC50 in experiment [1] (setting [5]) is 300 to 3000 nM; in experiment [2] (setting [6]), under 100 nM.

For the compound `COc1ccnc(F)c1C1CN(C(=O)[C@@H]2CC[C@@H]3CCC[C@H](NC(=O)c4cc5cc(CP(=O)(O)O)ccc5s4)C(=O)N32)C1` [Compound 578, ((2-(((3S,6S,9aS)-3-(3-(2-fluoro-4-methoxypyridin-3-yl)azetidine-1-carbonyl)-5-oxooctahydro-1H-pyrrolo[1,2-a]azepin-6-yl)carbamoyl)benzo[b]thiophen-5-yl)methyl)phosphonic acid], the IC50 in experiment [1] (setting [3]) is 3000 to 30000 nM; in experiment [2] (setting [4]), 1000 to 10000 nM.

Take `CS(=O)(=O)CC1CN(C(=O)[C@@H]2CC[C@@H]3CCC[C@H](NC(=O)c4cc5cc(C(F)P(=O)(O)O)ccc5s4)C(=O)N32)C1` (stereo partly drawn) [Compound 627, (fluoro(2-(((3S,6S,9aS)-3-(3-((methylsulfonyl)methyl)azetidine-1-carbonyl)-5-oxooctahydro-1H-pyrrolo[1,2-a]azepin-6-yl)carbamoyl)benzo [b]thiophen-5-yl)methyl) phosphonic acid]: the IC50 in experiment [1] (setting [3]) is 3000 to 30000 nM; in experiment [2] (setting [4]), under 100 nM.

With `O=C(N[C@H]1CCC[C@H]2CC[C@@H](C(=O)N3CC(c4ncncc4F)C3)N2C1=O)c1cc2cc(C(F)P(=O)(O)O)ccc2s1` (stereo partly drawn) [Compound 583, (fluoro(2-(((3S,6S,9aS)-3-(3-(5-fluoropyrimidin-4-yl)azetidine-1-carbonyl)-5-oxooctahydro-1H-pyrrolo[1,2-a]azepin-6-yl)carbamoyl)benzo[b]thiophen-5-yl)methyl)phosphonic acid], the results for the IC50 in experiment [1] (setting [3]) and in experiment [2] (setting [4]) were 3000 to 30000 nM and 100 to 1000 nM, respectively.
